Measured values: patent US8440677B2, “Atropisomers of 2-purinyl-3-tolyl-quinazolinone derivatives and methods of use” (Gilead Calistoga LLC, priority 2009, dated 2013)
Where two headings read alike, the source gives them in different places.

What was measured:
[1] = human subject, oral radiolabeled atropisomer; for metabolite formation in plasma, 72 hours: 72 hours after administration
[2] = Plasma concentration of atropisomers in rats after oral dosing with racemic 1 (FIG. 6); type: in vivo; settings: female rats, single 50 mg/kg oral dose of racemic 1, 8 hours after dosing
[3] = clinical; settings: human, plasma, po, 100 mg
[4] = Interconversion of atropisomers in blood plasma; type: in vivo; settings: within 4 hours after administration of the atropisomer
Text: Another possible explanation for the difference in exposure is that 1(R) is interconverted to 1(S) over time. […] However, this small amount of conversion should only account for a fraction of the difference in exposure rates in vivo and other factors, such as selective elimination of 1(R), are likely to play the major role in the lowered exposure rate of 1(R).

[5] = for plasma concentration at 24 hours: female rats, single dose 1.5 mg/kg
[6] = molecular target: p110δ (Homo sapiens, UniProt O00329); experiment: In vitro activity against p110 isoforms, biochemical assays (FIG. 5A); settings: versus p110alpha, p110beta, p110 gamma isoforms
Text: (§1) The in vitro activity of 1 and atropisomers, 1(S) and 1(R), have similar profiles in various isoforms of p110 inhibition as shown in FIGS. 5A and 5B. […] Although their in vitro potency appears to be similar, there are surprising in vivo differences observed between 1(S) and 1(R) as discovered in pharmacokinetic studies, mainly relating to the increased exposure of 1(S) and decreased exposure of 1(R) in the subject.
Target sequence in this assay (P27986 whole entry partner, one chain of several, canonical isoform): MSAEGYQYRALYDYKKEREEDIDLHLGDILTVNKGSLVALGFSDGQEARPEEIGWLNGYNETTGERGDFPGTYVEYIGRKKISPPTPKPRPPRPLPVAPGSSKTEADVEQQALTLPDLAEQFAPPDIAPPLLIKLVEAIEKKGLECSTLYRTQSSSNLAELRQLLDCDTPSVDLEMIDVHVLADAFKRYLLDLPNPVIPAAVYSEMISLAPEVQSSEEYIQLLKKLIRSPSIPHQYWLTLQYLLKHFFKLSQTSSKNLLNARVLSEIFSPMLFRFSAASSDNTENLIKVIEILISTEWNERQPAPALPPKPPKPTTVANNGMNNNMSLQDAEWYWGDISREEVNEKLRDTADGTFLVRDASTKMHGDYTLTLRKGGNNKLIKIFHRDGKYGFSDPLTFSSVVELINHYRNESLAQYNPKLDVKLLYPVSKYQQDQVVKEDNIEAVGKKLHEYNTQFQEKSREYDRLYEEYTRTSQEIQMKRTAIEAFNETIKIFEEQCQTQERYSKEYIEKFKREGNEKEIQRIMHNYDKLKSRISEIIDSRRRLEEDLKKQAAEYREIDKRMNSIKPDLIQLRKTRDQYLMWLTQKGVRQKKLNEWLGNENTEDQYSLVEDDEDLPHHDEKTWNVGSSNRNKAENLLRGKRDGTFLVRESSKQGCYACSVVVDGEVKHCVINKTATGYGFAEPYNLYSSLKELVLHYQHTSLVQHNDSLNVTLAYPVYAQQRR

[7] = Elimination in urine by LC-MS; type: in vivo; settings: compared with 1(S)
[8] = Plasma concentration of atropisomers in dogs after oral dosing with racemic 1 (FIG. 7); type: in vivo; settings: female dogs, single 50 mg/kg oral dose of racemic 1
Experimental: The tagged racemic mixture or separated atropisomers were administered in rats, dogs, and human subjects through oral and i.v. routes. The compounds were dissolved in PEG 100 such that any difference in dissolution rates would not play a role in the pharmacokinetic profile of the compounds. […] After administration of the compound, blood plasma of the subjects were sampled over time and evaluated by analytical HPLC methods developed to identify and measure concentrations of compound 1(S) or 1(R) present in the sample. It was observed that the most abundant isomer measured in the plasma is compound 1(S), which accounts for 70-80% of exposure to the subject.
In approximately 1 hour after dosing the maximum concentration of compounds 1(S) and 1(R) is reached. At that point, the concentration of 1(R) is less than half the concentration of compound 1(S). […] These large differences in pharmacokinetic behavior were not predictable.

[9] = human; for AUClast / Cmax / T½: 25 mg racemate daily for 7 days, 40 nCi labeled spike on day 4
[10] = Metabolic products in rat urine by LC-MS (FIG. 12); type: in vivo; settings: rats, single 50 mg/kg oral dose of the atropisomer
Experimental: A single 50 mg/kg oral dose of either atropisomer 1(S) or 1(R) was administered to rat subjects. The rat urine was subsequently sampled and analyzed using LC-MS instrumentation.

[11] = Solubility in a series of aqueous solvents (FIG. 4); type: physicochemical; settings: variety of aqueous solutions
[12] = human subjects
[13] = molecular target: T1, p110δ (Homo sapiens, UniProt O00329); experiment: In vitro activity against p110 isoforms, cell-based assays (FIG. 5B); settings: versus other p110 isoforms
T1 sequence (O00329 1-1044): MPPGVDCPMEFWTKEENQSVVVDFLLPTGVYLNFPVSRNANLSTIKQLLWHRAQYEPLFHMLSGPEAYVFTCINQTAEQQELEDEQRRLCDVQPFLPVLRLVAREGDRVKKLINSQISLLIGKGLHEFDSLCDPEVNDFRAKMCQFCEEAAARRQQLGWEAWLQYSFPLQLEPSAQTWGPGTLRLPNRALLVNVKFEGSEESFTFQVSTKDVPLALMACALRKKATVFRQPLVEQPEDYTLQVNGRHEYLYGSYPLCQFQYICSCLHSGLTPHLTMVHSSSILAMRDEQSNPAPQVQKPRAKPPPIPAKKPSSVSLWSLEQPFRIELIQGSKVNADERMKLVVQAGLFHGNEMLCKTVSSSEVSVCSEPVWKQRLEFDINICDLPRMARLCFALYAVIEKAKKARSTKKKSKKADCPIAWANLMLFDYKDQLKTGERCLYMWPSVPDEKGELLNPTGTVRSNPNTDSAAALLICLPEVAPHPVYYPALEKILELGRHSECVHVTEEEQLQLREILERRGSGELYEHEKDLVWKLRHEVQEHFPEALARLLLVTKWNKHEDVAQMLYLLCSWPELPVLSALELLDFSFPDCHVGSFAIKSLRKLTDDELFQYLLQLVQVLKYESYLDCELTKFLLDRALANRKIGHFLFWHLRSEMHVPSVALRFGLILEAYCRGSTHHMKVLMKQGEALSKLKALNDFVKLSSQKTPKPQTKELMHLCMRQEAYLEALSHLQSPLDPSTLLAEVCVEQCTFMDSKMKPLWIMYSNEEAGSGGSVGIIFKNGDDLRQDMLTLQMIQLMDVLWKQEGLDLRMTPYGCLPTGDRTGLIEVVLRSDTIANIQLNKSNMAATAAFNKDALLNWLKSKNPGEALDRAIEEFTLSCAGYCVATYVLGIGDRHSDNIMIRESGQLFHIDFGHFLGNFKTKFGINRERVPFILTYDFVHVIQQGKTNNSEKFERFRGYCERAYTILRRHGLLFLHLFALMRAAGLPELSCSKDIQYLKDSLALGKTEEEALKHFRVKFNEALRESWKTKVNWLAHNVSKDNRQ
Text: as §1

[14] = in vivo; settings: female, Sprague Dawley, rat, iv
[15] = Metabolites in human urine by LC/MS/MS; settings: humans
Text: Urine was collected from humans dosed the racemic mixture and evaluated for possible metabolites using LC/MS/MS.

[16] = Metabolites in human plasma; settings: human subjects dosed with the substance
[17] = test system: collagen induced arthritis (CIA) rats; experiment: Collagen induced arthritis (CIA) rats; type: in vivo, rat; settings: compared to vehicle
[18] = compounds dissolved in PEG 100
[19] = Human pharmacokinetics, racemic mixture versus 1(S) at 10 mg once daily; type: in vivo
Experimental: Human pharmacokinetic was obtained after both the racemic mixture and 1(S) were administered at 10 mg once daily. […] Since the dose is low and well absorbed, as evidenced by the determination of 100% bioavailability, it is likely that the 1(R) metabolism is greater. The greater extent and complexity of 1(R) metabolism was supported by studies on human and rat in vivo metabolism as well as in vitro studies of human liver microsomes and protein binding.

[20] = Plasma concentration in human subjects after a single oral dose of 100 mg or 10 mg (FIG. 10); type: in vivo
[21] = Plasma concentration in rats after single oral dose of 1(S) or 1(R) (FIG. 9B); type: in vivo, rat; settings: female rats, single oral dose 1.5 mg/kg, 12 hour time point
[22] = female SD rats, single bolus i.v.
[23] = 25 mg racemate daily, labeled spike on day 4, after day 1
[24] = single 100 mg oral dose of racemic 1

Cc1ccccc1-n1c(Cn2cnc3c(N)ncnc32)nc2cccc(C)c2c1=O (single isomer, unassigned) [Compound 1(R), 2-((6-amino-9H-purin-9-yl)methyl)-5-methyl-3-o-tolylquinazolin-4(3H)-one]
metabolite formation in plasma, 72 hours [1]: primarily the metabolites are detected
average plasma concentration of 1(R) relative to 1(S) [2]: approximately one-fourth
half-life ([3]; half-life, human subjects, single 100 mg oral dose of racemic 1): ~9 h
conversion to the other atropisomer in blood plasma [4]: approximately 14%
Vz of 1(R) relative to 1(S) or racemic mixture [5, 22]: about 2.6 times
half life of 1(R) relative to 1(S) or racemic mixture 1 [5, 22]: about 2.8 times
plasma concentration at 24 hours [5]: very low
p110δ inhibition in biochemical assays [6]: selective p110δ inhibition
elimination in urine [7]: preferentially eliminated in urine
plasma concentration of 1(R) relative to 1(S) at maximum concentration [8]: less than half
time to maximum plasma concentration [8]: approximately 1 hour
AUClast [9]: 21676 neq*h/mL
Cmax [9]: 1946 neq/mL
concentration of 14C radiolabeled material in blood plasma ([9]; 25 mg racemate daily, labeled spike on day 4, 50 hours from dosing): 10-50 neq/mL
concentration of 1(R) relative to 1(S) [9, 23]: about one-fourth
concentration of 14C radiolabeled material in blood plasma [9, 23]: about 500 neq/mL
metabolic products found in urine [10]: more metabolic products
solubility differences between 1(S) and 1(R) [11]: Modest solubility differences
plasma concentration of 1(R) relative to 1(S) at maximum concentration [12, 24]: less than half
p110δ inhibition in cell-based assays [13]: selective p110δ inhibition

Cc1ccccc1-n1c(Cn2cnc3c(N)ncnc32)nc2cccc(C)c2c1=O (single isomer, unassigned) [Compound 1, 2-((6-amino-9H-purin-9-yl)methyl)-5-methyl-3-o-tolylquinazolin-4(3H)-one]
AUC ([14]; in vivo, 3 mg/kg): 1970 ± 243 ng·h/mL
Vd ([14]; in vivo, 3 mg/kg): 5.4 ± 1.57 L/kg
clearance ([14]; in vivo, 3 mg/kg): 26 mL/min/kg
half-life ([14]; in vivo, 3 mg/kg): 2.5 ± 0.7 h
p110δ inhibition in biochemical assays [6]: selective p110δ inhibition
number of metabolites confirmed in urine ([15]; authentic racemic standards, achiral method): 5
total number of metabolites observed in urine ([15]; counting atropisomers of metabolites): 9
number of metabolites observed in plasma ([16]; listed as racemic mixture): 2
AUClast [9]: 51,032 ± 22,383 neq*h/mL
Cmax [9]: 2780 ± 1163 neq/mL
T½ [9]: 69.9 ± 26.6 h
p110δ inhibition in cell-based assays [13]: selective p110δ inhibition

Cc1ccccc1-n1c(Cn2cnc3c(N)ncnc32)nc2cccc(C)c2c1=O (single isomer, unassigned) [Compound 1(S), 2-((6-amino-9H-purin-9-yl)methyl)-5-methyl-3-o-tolylquinazolin-4(3H)-one]
AUC ([14]; plasma, 1.5 mg/kg): 865 ± 212 ng·h/mL
Vd ([14]; plasma, 1.5 mg/kg): 5.77 ± 2.74 L/kg
clearance ([14]; plasma, 1.5 mg/kg): 30.6 mL/min/kg
half-life ([14]; plasma, 1.5 mg/kg): 2.5 ± 1.6 h
metabolite formation in plasma, 1 hour ([1]; 1 hour after administration): remains largely unmodified
metabolite formation in plasma, 72 hours [1]: still less than the amount of the parent compound
anti-collagen antibody levels ([17]; FIG. 15): reduction of collagen antibody levels
X-ray score (radiographic assessment) ([17]; FIG. 16): reduction in the X-ray score
histopathology, dark areas of tissue images ([17]; similar to MTX, FIGS. 17A-D): reduced
arthritis score ([17]; versus days post compound dosing, FIG. 14): activity in reducing the severity of arthritis
half-life [3]: > 72 h
share of exposure to the subject (most abundant isomer in plasma) [18]: 70-80%
conversion to the other atropisomer in blood plasma [4]: less than 1%
plasma concentration at 24 hours [5]: very low
p110δ inhibition in biochemical assays [6]: selective p110δ inhibition
Cmax of 1(S) greater than racemic mixture [19]: 30%
increase of AUC0-24 of 1(S) over racemic mixture ([19]; Day 1): 2.4 fold
increase of AUC0-24 of 1(S) over racemic mixture ([19]; Day 7): 40%
number of metabolites observed in plasma [16]: one
time to maximum plasma concentration [8]: approximately 1 hour
AUClast [9]: 90511 neq*h/mL
Cmax [9]: 3930 neq/mL
T½ [9]: 63.9 h
AUC of 1(S) relative to 1(R) ([9]; data of FIG. 11): over 4 times
Cmax of 1(S) relative to 1(R) ([9]; data of FIG. 11): twice
half-life of 1(S) relative to 1(R) ([9]; data of FIG. 11): 6 times
metabolic products found in urine [10]: mainly one compound
solubility differences between 1(S) and 1(R) [11]: Modest solubility differences
half-life in humans (in words) ([12]; oral racemic 1, greater than in dogs): several days
share of the exposure at the maximum concentration point [12, 24]: approximately 70%
plasma concentration of 1(S) relative to 1(R) ([12]; single 100 mg oral dose of racemic 1, 72 hours post-dosing): over 10 times
p110δ inhibition in cell-based assays [13]: selective p110δ inhibition
maximum plasma concentration of 1(S) relative to 1(R) ([20]; single oral dose of 10 mg): about double
maximum plasma concentration of 1(S) relative to 1(R) ([20]; single oral dose of 100 mg): over 2 times
plasma concentration of 1(S) versus 1(R) [21]: greatly exceed
